What is called IC50 is the point on the concentration scale where inhibition reaches its midpoint.

In one data set the test system is human hepatocytes. The note with it: 72 h, 100 µM. The procedure: Plateable and inducible cryopreserved human hepatocytes were thawed and isolated in human hepatocyte thawing medium. […] After attachment (4 hours), the medium was changed to fresh hepatocyte culture medium for overnight cell recovery. […] A positive control (100 μM chlorpromazine) was treated in parallel. […] The absorbance of formazan, which is proportional to the number of viable cells, was measured spectrophotometrically using the CellTiter 96® AQueous One Solution Cell Proliferation Assay (MTS).

In a further data set the target is hrCYP3A4 (Homo sapiens, UniProt P08684). The experiment in a line: Formation of CYP probe metabolites in hrCYPs. The note with it: Formation rate(hrCYP)/Formation rate(Negative Control). It counts as in vitro ADME.
Sequence of hrCYP3A4 (P08684 whole entry): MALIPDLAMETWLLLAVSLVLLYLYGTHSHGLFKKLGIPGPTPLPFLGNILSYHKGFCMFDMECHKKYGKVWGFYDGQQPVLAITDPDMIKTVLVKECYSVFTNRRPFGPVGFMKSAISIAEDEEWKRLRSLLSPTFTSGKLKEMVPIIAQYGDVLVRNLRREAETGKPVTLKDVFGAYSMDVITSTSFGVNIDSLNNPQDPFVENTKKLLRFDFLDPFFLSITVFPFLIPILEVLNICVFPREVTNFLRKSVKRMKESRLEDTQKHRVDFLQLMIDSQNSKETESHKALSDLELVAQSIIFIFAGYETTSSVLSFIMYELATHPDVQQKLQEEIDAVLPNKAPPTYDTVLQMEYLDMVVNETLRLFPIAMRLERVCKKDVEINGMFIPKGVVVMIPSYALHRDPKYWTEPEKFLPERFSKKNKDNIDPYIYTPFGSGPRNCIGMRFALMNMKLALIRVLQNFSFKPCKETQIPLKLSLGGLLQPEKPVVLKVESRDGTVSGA
Data set [1] can be described thus: CYP reaction phenotyping: CYP control (negative control without CYP enzymes). The note with it: pH 7.4. On the procedure: The reaction was initiated by the addition of NADPH, followed by incubation at 37° C.
In another data set the target is T1, CYP2C8 (Homo sapiens, UniProt P10632).
T1 sequence (P10632 1-490): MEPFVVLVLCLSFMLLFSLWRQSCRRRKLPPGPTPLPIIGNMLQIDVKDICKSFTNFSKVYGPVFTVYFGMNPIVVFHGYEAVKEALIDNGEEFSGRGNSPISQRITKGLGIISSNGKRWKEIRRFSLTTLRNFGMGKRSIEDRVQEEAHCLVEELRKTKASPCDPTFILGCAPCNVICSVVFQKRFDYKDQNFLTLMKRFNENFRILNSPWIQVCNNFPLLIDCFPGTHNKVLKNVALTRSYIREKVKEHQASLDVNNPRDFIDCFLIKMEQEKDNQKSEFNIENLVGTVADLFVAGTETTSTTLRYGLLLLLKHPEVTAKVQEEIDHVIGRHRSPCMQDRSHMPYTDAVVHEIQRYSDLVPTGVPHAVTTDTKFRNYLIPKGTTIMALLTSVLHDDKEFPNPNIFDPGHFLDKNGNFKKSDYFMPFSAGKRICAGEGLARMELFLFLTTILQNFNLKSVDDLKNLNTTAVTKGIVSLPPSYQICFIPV
The data set is described as follows: Inhibition of CYP2C8 activity in human liver microsomes. The data set is classed as in vitro ADME. Also noted: co-incubated with pooled HLM (0.25 mg protein/mL); from tissue; host or cells: pooled human liver microsomes. The procedure:
[…]. […] Negative (vehicle) controls were conducted without TA.
(Microsomes from liver hold many membrane-bound enzymes, among them those of drug oxidation.)

A further data set addresses T2, OATP1B1 (Homo sapiens, UniProt Q9Y6L6).
T2 sequence (Q9Y6L6 1-691): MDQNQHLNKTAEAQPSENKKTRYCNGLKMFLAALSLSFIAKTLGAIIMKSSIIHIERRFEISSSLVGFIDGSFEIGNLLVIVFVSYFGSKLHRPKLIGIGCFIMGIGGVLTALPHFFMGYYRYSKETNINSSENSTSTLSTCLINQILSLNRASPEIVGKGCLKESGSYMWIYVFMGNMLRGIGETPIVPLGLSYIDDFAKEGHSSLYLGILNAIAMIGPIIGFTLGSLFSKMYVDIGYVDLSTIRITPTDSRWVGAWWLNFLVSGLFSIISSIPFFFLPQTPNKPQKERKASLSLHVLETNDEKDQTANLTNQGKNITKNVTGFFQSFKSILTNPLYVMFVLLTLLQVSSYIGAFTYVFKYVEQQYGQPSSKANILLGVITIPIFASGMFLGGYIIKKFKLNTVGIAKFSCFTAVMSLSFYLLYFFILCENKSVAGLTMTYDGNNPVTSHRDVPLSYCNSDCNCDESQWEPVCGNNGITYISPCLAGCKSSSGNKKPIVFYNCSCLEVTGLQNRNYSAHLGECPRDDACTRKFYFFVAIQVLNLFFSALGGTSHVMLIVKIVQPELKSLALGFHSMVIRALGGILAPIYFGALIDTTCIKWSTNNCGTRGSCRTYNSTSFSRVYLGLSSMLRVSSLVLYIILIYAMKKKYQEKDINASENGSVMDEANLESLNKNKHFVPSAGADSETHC
The experiment in a line: OATP1B1 inhibitor (IC50) assessment, atorvastatin uptake in transfected HEK cells.

Another data set concerns the target T3, OATP1B3 (Homo sapiens, UniProt Q9NPD5).
T3 sequence (Q9NPD5 1-702): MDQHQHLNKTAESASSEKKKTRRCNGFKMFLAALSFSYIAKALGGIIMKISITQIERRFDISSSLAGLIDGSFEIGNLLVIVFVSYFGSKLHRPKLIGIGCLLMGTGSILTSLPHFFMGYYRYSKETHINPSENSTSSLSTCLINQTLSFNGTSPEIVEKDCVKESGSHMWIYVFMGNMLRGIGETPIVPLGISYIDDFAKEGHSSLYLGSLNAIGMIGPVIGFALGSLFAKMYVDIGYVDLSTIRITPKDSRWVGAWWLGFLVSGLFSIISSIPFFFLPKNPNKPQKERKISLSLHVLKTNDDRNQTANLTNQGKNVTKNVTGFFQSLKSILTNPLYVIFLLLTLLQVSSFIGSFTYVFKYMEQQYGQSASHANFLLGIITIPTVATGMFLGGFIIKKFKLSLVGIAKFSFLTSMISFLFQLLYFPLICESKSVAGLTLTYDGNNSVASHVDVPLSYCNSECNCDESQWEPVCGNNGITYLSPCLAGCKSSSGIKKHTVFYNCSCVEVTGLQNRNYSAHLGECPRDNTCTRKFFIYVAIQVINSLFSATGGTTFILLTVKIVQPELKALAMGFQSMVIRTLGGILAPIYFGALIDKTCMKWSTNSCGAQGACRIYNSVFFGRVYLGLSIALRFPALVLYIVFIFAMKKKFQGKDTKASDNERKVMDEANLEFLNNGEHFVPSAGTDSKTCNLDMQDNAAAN
The data set is described as follows: OATP1B3 inhibitor (IC50) assessment, atorvastatin uptake in transfected HEK cells.

The target in a further data set is CYP2C9 (Homo sapiens, UniProt P11712). The experiment in a line: Inhibition of CYP2C9 activity in human liver microsomes. The procedure: CYP enzyme activity was determined by measuring the formation of each CYP probe metabolite by LC-MS/MS.
Sequence of CYP2C9 (P11712 whole entry, canonical isoform): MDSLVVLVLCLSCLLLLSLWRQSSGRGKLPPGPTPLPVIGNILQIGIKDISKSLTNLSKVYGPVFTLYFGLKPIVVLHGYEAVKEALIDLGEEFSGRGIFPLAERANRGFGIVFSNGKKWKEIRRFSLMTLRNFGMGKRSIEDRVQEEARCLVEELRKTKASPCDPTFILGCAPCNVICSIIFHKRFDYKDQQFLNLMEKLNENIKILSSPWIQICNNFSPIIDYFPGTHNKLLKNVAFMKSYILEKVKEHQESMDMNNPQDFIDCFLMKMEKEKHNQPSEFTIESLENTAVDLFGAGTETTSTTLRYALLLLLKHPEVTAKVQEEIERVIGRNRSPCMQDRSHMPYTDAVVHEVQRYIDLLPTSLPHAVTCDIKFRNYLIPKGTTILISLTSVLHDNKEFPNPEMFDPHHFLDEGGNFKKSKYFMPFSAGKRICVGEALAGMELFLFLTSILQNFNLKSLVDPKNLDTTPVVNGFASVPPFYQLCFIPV
The total organic solvent content in the final incubation was less than 1% (DMSO ≤0.1%, other organic solvent ≤1%). […] The reaction was initiated by the addition of NADPH, followed by incubation at 37° C. for 10-30 minutes depending on the individual CYP isoform. The reaction was terminated by the addition of two volumes of ice-cold acetonitrile (ACN) containing an internal standard (IS, stable isotope-labeled CYP probe metabolite). Negative (vehicle) controls were conducted without TA. Positive controls were performed in parallel using known CYP inhibitors. […] The formation of individual CYP probe metabolites was determined by LC-MS/MS.
The enzyme activity was expressed as the peak area ratio of probe metabolite to IS, measured by LC-MS/MS.

On the set-up of data set [2]: species or system male Sprague Dawley rats. The note with it: male, Sprague Dawley, rat, in vivo, po. The procedure:
Total urine recovery data for Tenofovir, TDF, and PB was calculated for the 24 hour collection period on Days 1 and 5. […] The reported urine recovery data included amount recovered (ng) and percent recovered (%) for […]. Individual and mean Tenofovir, TDF, and PB urine recovery data were presented with SD, reported to three significant figures, and CV %, reported to one decimal place.

For data set [3] the following is noted: rat, in vivo.
The target in data set [4] is T4, CYP2B6 (Homo sapiens, UniProt P20813).
T4 sequence (P20813 1-491): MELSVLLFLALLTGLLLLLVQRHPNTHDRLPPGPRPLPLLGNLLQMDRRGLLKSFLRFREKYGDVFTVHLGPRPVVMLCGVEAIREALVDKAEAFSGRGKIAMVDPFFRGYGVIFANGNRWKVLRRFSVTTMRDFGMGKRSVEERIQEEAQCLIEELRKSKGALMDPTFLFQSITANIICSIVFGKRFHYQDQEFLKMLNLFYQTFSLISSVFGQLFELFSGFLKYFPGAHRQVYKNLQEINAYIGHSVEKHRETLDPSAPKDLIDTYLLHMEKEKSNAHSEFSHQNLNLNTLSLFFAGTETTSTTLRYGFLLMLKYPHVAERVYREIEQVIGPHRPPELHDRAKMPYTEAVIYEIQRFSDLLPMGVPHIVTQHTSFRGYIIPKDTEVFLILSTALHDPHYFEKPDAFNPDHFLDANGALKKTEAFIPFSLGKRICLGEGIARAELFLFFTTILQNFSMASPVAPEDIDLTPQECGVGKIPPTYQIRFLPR
The data set is described as follows: Time-dependent inhibition (TDI) of CYP in HLM, 30 min pre-incubation ±NADPH. The note with it: microsomes, pH 7.4, % of Control Enzyme Activity. On the procedure: CYP TDI was evaluated by a 30-minute pre-incubation of the TA with HLM in the presence and absence of NADPH followed by the CYP enzyme activity assay. […] The total organic solvent content in the final incubation was less than 1% (DMSO ≤0.1%, other organic solvent ≤1%). The CYP reactions were initiated by adding an individual CYP probe substrate with (when NADPH was not added in the pre-incubation step) or without (when NADPH was added in the pre-incubation step) the addition of NADPH (1 mM). The reaction mixture was incubated at 37° C. for 10-30 minutes depending on the individual CYP isoform (Table 24). The reaction was terminated with ice-cold acetonitrile (ACN) containing an internal standard (IS, stable isotope-labeled CYP probe metabolite). Negative (vehicle) controls were conducted using the incubation mixture without the TA. Positive controls were performed in parallel using known CYP time-dependent inhibitors. […] The formation of individual CYP probe metabolites was determined by LC-MS/MS.
The enzyme activity was expressed as the peak area ratio of CYP probe metabolite to IS, measured by LC-MS/MS.

For data set [5], the target named is T4, CYP2B6. The data set is described as follows: Inhibition of CYP2B6 activity in human liver microsomes. The data set is classed as in vitro ADME. Also noted: co-incubated with pooled HLM (0.25 mg protein/mL); from tissue; host or cells: pooled human liver microsomes.

Counter-ions that a name gives are not always drawn.

Turning to `CN(C)CCCN1c2ccccc2Sc2ccc(Cl)cc21` [Chlorpromazine, chlorpromazine], in the data set with human hepatocytes, the “% MTS Absorbance Relative to Vehicle Control” value stood at 24.3% and the “Formazan Absorbance (n = 3) Mean” value is recorded as 0.160.
As for `Cc1ncc2n1-c1ccc(Cl)cc1C(c1ccccc1F)=NC2` [Midazolam, reference compound], the “Formation Rate Ratio” value on hrCYP3A4 is given as >>2. Also, in [1], the “Formation Rate” value is recorded as 0 pmol metabolite/min/mg Supersome protein and the “Measured Metabolite” value stood at 0 µM.
For `CC(C)(O)c1ccccc1CC[C@@H](SCC1(CC(=O)O)CC1)c1cccc(/C=C/c2ccc3ccc(Cl)cc3n2)c1` [Montelukast], on CYP2C8 (human, microsomes, pH 7.4), the activity at 3.33 μM stood at 14.6% and the activity at 10 μM was determined as 5.31%. The IC50 at CYP2C8 (positive inhibitor, HLM) was found to be 517 nM.
Turning to `CO[C@H]1/C=C/O[C@@]2(C)Oc3c(C)c([O-])c4c(O)c(cc(O)c4c3C2=O)NC(=O)/C(C)=C\C=C\[C@H](C)[C@H](O)[C@@H](C)[C@@H](O)[C@@H](C)[C@H](OC(C)=O)[C@@H]1C.[Na+]` [RSV, rifamycin SV], on OATP1B1 ([…] Atorvastatin + 10 μM RSV), the “Net Influx Rate of Atorvastatin (OATP1B1)” value came to 0.184 pmol/mg protein/minute and the “Percentage Inhibition of OATP1B1” value is reported as 96.7%. Moreover, the “inhibition of atorvastatin uptake in OATP1B1-transfected cells” value against OATP1B1 (known inhibitor) was 96.7%. For the same compound, on OATP1B3 ([…] Atorvastatin + 10 μM RSV), the “Net Influx Rate of Atorvastatin (OATP1B3)” value is 0.0551 pmol/mgprotein/minute and the “Percentage Inhibition of OATP1B3” value came to 98.1%. Moreover, the “inhibition of atorvastatin uptake in OATP1B3-transfected cells” value at OATP1B3 (known inhibitor) is reported as 98.1%.
As for `Nc1ccc(S(=O)(=O)Nc2ccnn2-c2ccccc2)cc1` [Sulfaphenazole], the “% of Control Enzyme Activity (n = 3) Average” value was 23.8% on CYP2C9 (Sulfaphenazole 3.33 μM) and 14.9% at CYP2C9 (Sulfaphenazole 10.0 μM).
Regarding `CC(C)OC(=O)OCOP(=O)(CO[C@H](C)Cn1cnc2c(N)ncnc21)OCOC(=O)OC(C)C` [TDF, Tenofovir Disoproxil Fumarate], in data set [2], the Urine concentrations entry was “Urine concentrations for PB analysis in all animals on Day 1, for TUDCA analysis in all animals on Days 1 and 5, and for TDF analysis in two animals on Day 1 and one animal on Day 5 were BLQ (<20 ng/mL) so no recovery data was calculated”.
As to `C[C@H](Cn1cnc2c(N)ncnc21)OCP(=O)(O)O` [Tenofovir], the “individual Tmax” value in data set [3] turned out to be 15 min.
`C[C@]12CC[C@H]3[C@@H](CCC4=CC(=O)CC[C@@]43C)[C@@H]1CC[C@@H]2O` [Testosterone, reference compound]: at hrCYP3A4, the “Formation Rate Ratio” value is on record as >>2. Also, in data set [1], the “Formation Rate” value is reported as 0 pmol metabolite/min/mg Supersome protein and the “Measured Metabolite” value stood at 0 µM.
At CYP2B6 [4] (+NADPH 30 min, 3.33 μM), `S=P(N1CC1)(N1CC1)N1CC1` [Thio-TEPA] returned an activity at 30 min, 3.33 µM of 35.5%. Also, the activity at 30 min, 10 µM on CYP2B6 [4] (+NADPH 30 min) came to 18.3%; at CYP2B6 [4] (−NADPH 30 min), 76.7%. The activity at 30 min, 30 µM at CYP2B6 [4] (+NADPH 30 min) is 11.6%; at CYP2B6 [4] (−NADPH 30 min) it was 54.8%. Moreover, the “% of Control Enzyme Activity (n = 3) Average” value on CYP2B6 [5] (Thio-TEPA 3.33 μM) is on record as 66.9%; on CYP2B6 [5] (Thio-TEPA 10.0 μM), 44.1%; at CYP2B6 [5] (Thio-TEPA 30.0 μM) it was 26.7%.
